Entries after “also recorded” stand apart in the source; their conditions may differ.
Columns and labels:
Assay type in all cases: in vivo, mouse
[1] = test system: OVA sensitized and challenged mice; assay: Ovalbumin (OVA) sensitization and challenge Th2 inflammation model
Procedure: (§1) Mice were sacrificed using intraperitoneal ketamine/xylazine injection and the trachea was cannulated and perfused with two 0.9 nil aliquots of cold saline. The cellular contents and BAL fluid were separated by centrifugation, the BAL cell number was quantitated and cell differential was assessed. The BAL fluid was stored in aliquots at −80° C.
ELISA assay kits for VEGF and IL-13 were purchased from R&D Systems (Minneapolis, Minn.).
OVA sensitization (with alum) and aerosol OVA challenge were undertaken as previously described (Lee et al., 2008, Am J Respir Cell Mol Biol 39:739-746; Lee et al., 2009, J Exp Med 206:1149-1166). The responses in mice that had been treated with Poly(I:C) or vehicle 24 hours before the aerosol challenge were compared. The BAL and tissue responses were evaluated 24 hours after antigen challenge.

IFN-α and IFN-β = assay: BAL Type I IFNs by ELISA; settings: WT (Tg−) and VEGF Tg+ animals
Procedure: (§2) ELISA and activity assay kits for IFNa and IFNβ analysis were purchased from PBL Biomedical Laboratories (Piscataway, N.J.). ELISAs for eotaxin/CCL11, MCP-1/CCL2, KC/CXCL1 and MIP-2/CXCL14 were obtained from R&D Systems (Minneapolis, Minn. USA). Each was performed according to the manufacturer's instructions.

[2] = test system: KC/CXCL1 and MIP-2/CXCL14; assay: BAL neutrophil chemotactic chemokines by ELISA; settings: Tg+ mice, pretreatment, 2 weeks
Procedure: as §2

[3] = test system: Erk, FAK, Akt, and eNOS signaling pathways; assay: VEGF signaling in lung (eNOS/iNOS mRNA, immunoblot of Erk, FAK, Akt, eNOS); settings: Tg+ mice lung
Procedure: These experiments used antibodies specific for Akt or phosphorylated (p) Akt (Danvers Mass.), FAK or pFAK (BioSource, International; Camarillo Calif.), PI3K or pPI3K (Cell Signalling), eNOS and iNOS (Santa Cruz BioTechnology, Santa Cruz Calif., USA) and MUC-5AC (NeoMarkers; Fremont). Western blot analysis was performed using standard protocols and visualized using the ECL system (Amersham Biosciences; Piscataway, N.J.).
Total RNA was isolated from fresh mouse lung with TRIzol reagent (Invitrogen; Carlsbad, Calif.) following the manufacturer's instructions. Quantification of mouse lung mRNA was performed by quantitative real-time PCR using ABI 7500 fast real-time PCR system (Applied Biosystems; Foster City, Calif.) and power SYBR green PCR master mix kit with appropriately specific primers (Applied Biosystems; Foster City, Calif.).
Lung lysates were subjected to immunoblot analysis using antibodies against phosphorylated (p) p-Erk, total Erk, p-Fak; total FAK; p-Akt, total Akt, peNOS and total eNOS (Cell Signaling, Beverly Mass.).

[4] = test system: CC10-rtTA-VEGF165 transgenic mice; assay: BAL inflammatory cell recovery, VEGF-induced inflammation
Procedure: (§3) The CC10-rtTA-VEGF165 transgenic mice used in this study were generated and used as described previously (Lee et al., 2004, Nature Medicine 10:1095-103), which reference is incorporated herein in its entirety. These animals were housed under barrier conditions in the animal facility at Yale University School of Medicine. In these experiments 6-8 week old transgenic (Tg+) animals and their transgene negative littermate controls (Tg−) were randomized to receive water with doxycycline (dox) (0.5 mg/ml) or normal water. Two weeks later they were sacrificed and the VEGF-induced phenotype was evaluated as described below (Lee et al., 2004, Nature Medicine 10:1095-103).
To define the effects of these agents on the tissue responses induced by VEGF, two experimental procedures were used. In the first, a pretreatment protocol was used. In these experiments the noted innate immunity agonist ([…] unless otherwise indicated) or its vehicle control (PBS) were administered intranasally and aspirated into the lungs of randomized Tg+ and Tg− mice starting one day before the Dox water treatment. The doses were administered to the mice every other day during the 2 week doxyxycline (dox) treatment interval.
To determine if the innate immunity agonists altered established VEGF-induced tissue responses, a “post treatment” protocol was used in selected experiments. In these experiments the innate immunity agonist was administered 2 days or 14 days after the doxycycline and VEGF-induced responses were evaluated 2 weeks later.
To define the effects of Poly(I:C) a number of protocols were employed. In most experiments, a pretreatment-2 week protocol was employed. In these experiments, WT and Tg+ mice were treated with Poly(I:C) (30 μg in 50 lambda unless otherwise indicated; Amersham Biosciences, N.J.) or vehicle control via nasal aspiration and transgene activation was accomplished via the administration of dox (0.5 mg/ml) in the animal's drinking water 24 hours later. The Poly(I:C) was administered every other day and the dox was administered continuously for up to 2 weeks.
Lastly, in selected experiments post-transgene activation protocols were employed. In these experiments dox was administered for 2 days or 2 weeks. The Poly(I:C) was then administered via intranasal aspiration every other day for 2 weeks as disclosed elsewhere herein. In selected pre-treatment and post-transgene activation experiments, unmethylated CpG (CpG-B) (Keck Center, Yale University) was also employed at similar doses. At the end of these intervals, assessments of angiogenesis (anti-CD31 immunohistochemistry), vascular permeability (Evan's blue dye extravasation, wet to dry lung weight measurements, BAL protein concentration), BAL and tissue inflammatory cell infiltration and mucus metaplasia (periodic acid-Schiff (PAS) staining, MUC5AC immunoblotting) were undertaken. In all cases experiments were designed to compare Tg− and Tg+ mice on normal water and Tg− and Tg+ mice on dox water.
as §1

[5] = test system: CC10-rtTA-VEGF165 transgenic mice; assay: VEGF-induced pulmonary hemorrhage in BAL fluids; settings: Tg+ mice, pretreatment, vs vehicle
Procedure: as §3, with “10:1095-103). […]” for “10:1095-103).”
Mice were sacrificed using intraperitoneal ketamine/xylazine injection and the trachea was cannulated and perfused with two 0.9 nil aliquots of cold saline. The cellular contents and BAL fluid were separated by centrifugation, the BAL cell number was quantitated and cell differential was assessed. […]
The lungs were removed en bloc as described elsewhere herein, inflated at 25 cm pressure with PBS containing 0.5% low melting point agarose gel, fixed in Streck solution (Streck Laboratories, La Vista, Nebr.), embedded in paraffin, sectioned and stained. […] Pulmonary hemorrhage was evaluated by quantitating BAL red blood cell number with a Coulter counter (Beckman Coulter).

[6] = Tg+ mice, pretreatment, vs vehicle

polyinosinic-polycytidylic acid [Poly(I:C)]
OVA-induced cytokine response (BAL IL-13) [1]: significant decrease
OVA-induced inflammatory response (BAL total cell, macrophage, eosinophil, lymphocyte recovery) ([1]; Poly(I:C) 24 hours before aerosol challenge): significant decrease; also recorded: abrogated
production of IFN-α and IFN-β in BAL (IFN-α and IFN-β): potent stimulator
levels of KC/CXCL1 and MIP-2/CXCL14 in BAL [2]: significant increases
VEGF activation/phosphorylation of Erk, FAK, Akt and eNOS ([3]; 30 μg pretreatment, 2 weeks): significantly decreased
VEGF-induced eNOS and iNOS mRNA accumulation and AKT phosphorylation/activation ([3]; p<0.05): significant decrease
VEGF-induced inflammation, delayed administration ([4]; Tg+ mice, given 2 days (48 hours) or 14 days after transgene activation with dox): significant decrease; also recorded: significant regulation
recovery of macrophages, eosinophils and lymphocytes during BAL ([4]; Tg+ mice, pretreatment, p<0.05): significantly decreased
BAL neutrophil accumulation [4, 6]: increased
total recovery of inflammatory cells during BAL / VEGF-induced inflammation [4, 6]: markedly decreased; also recorded: inhibited
Total cells (×10^4) ([4]; VEGF-induced tissue responses, TLR agonist administration, PBS control 50): 22 ×10^4
lowest dose with significant alterations of VEGF-induced inflammation ([4]; pretreatment): 5 µg
dose with maximal regulation of VEGF-induced inflammation ([4]; pretreatment, highest dose tested): 30 µg
VEGF-induced bleeding / hemorrhage in BAL fluids [5]: significantly decreased

Source: patent publication US20110245323A1, “RIG-Like Helicase Innate Immunity Inhibits VEGF-Induced Tissue Responses” (Yale University, priority 2006, published 2011)
